From patent US20160136284A1, “GLIOMA TREATMENT” (priority 2012, published 2016)
Entries after “also recorded” stand apart in the source; their conditions may differ.

Columns and labels:
[1] = system: synaptophysin; test: Synaptophysin ELISA of rat brain homogenates after carboplatin infusion; format: in vivo; settings: 72 hours after infusion
Protocol: Brain tissue homogenates were prepared from dissected samples of unfixed frozen hemispheres from rats at 72 hours after infusion of either artificial CSF (control) or carboplatin at concentrations of 0.36 and 0.72 mg/ml. Tissue samples incorporating the overlying cerebral cortex (approximately 200 mg) were dissected and homogenised for 75 s using a Precellys 24 automated tissue homogeniser (Stretton Scientific) with 2.3 mm silica beads (Biospec) in 1% SDS, 10 mM tris base (pH 6.0), 0.1 mM sodium chloride, and the protease inhibitors aprotinin (1 μg/ml; Sigma) and PMSF (10 μM; Sigma). The resultant crude tissue homogenates were centrifuged at 13,000 rpm for 15 min at 4° C., and the supernatants aliquoted and stored at −80° C.
Ninety-six-well plates (Nunc Maxisorp) were coated with primary rabbit anti-synaptophysin polyclonal antibody (Abeam) at a concentration of 1 μg/ml, and incubated overnight at 4° C. After 5 washes with wash buffer, non-specific binding was blocked with the addition of 1% BSA/PBS for 2 hours. After 5 washes with wash buffer, serial dilutions of recombinant synaptophysin or the supernatant of crude homogenates were added to wells in triplicate, and incubated at room temperature for 2 hours. […] Plates were read in a microplate reader at 405 nm (BMG Labtech).

[2] = system: diffuse intrinsic pontine glioma; test: CED of carboplatin in a patient with diffuse intrinsic pontine glioma
Excerpt: MR imaging under general anaesthetic was undertaken to facilitate pre-operative stereotactic planning (field strength 3 T, Philips Achieva TX, Philips Healthcare, The Netherlands) one week prior to surgery. […] A left transfrontal trajectory for catheter implantation was planned (FIGS. 7a-d) facilitating the in-house manufacture of a bespoke catheter with a winged hub (FIG. 8a). The catheter was manufactured from polyether ether ketone (PEEK) with an outer diameter (OD) of 0.6 mm, which was bonded onto a fused silica cannula with a laser-cut tip (OD 0.23 mm). The catheter was designed to be implanted through a 1 mm OD carbothane guide-tube.
On the day of surgery the patient was anaesthetised and placed in a Leksell frame. A pre-operative CT angiogram was performed and co-registered with the post-contrast T1 weighted planning MRI scan to facilitate output of stereotactic co-ordinates to a Neuro|Mate® neurosurgical robot (Renishaw) (FIG. 8b). A 3 cm left frontal curvilinear scalp incision was made and the periosteum retracted. The robot was driven to the entry position on the skull, and using custom-made hand drills, a multi-featured burr hole made into which the guide tube hub would push fit. The dura was pierced and a 1 mm guide rod inserted to a point 24 mm proximal to the target within the tumour. The guide tube was then implanted on a 0.6 mm guide rod to maintain trajectory. The catheter was tunnelled out through a separate stab incision in the scalp and connected to a custom-made in-line gas and bacterial filter. The catheter was attached to an infusion pump (B Braun, Melsungen, Germany) and primed with artificial cerebrospinal fluid (Torbay Pharmaceutical Manufacturing Unit, Torbay, UK). The fused silica catheter was then implanted via the guide-tube with 3 mm of fused silica retained within the guide tube and 24 mm extending beyond the guide-tube tip, thus creating a “recessed-step” within the distal guide-tube (FIG. 8c). The winged hub of the catheter was turned 90° at the skull and secured with 5 mm titanium screws. […] The skin incision was closed in layers and the externalised catheter tubing secured in a loop on the scalp (FIG. 8d).
Whilst under general anaesthesia the child was transferred to the 3 T MRI scanner. The externalised catheter was attached to a 6 m extension line to allow infusions to be performed from a syringe driver (B Braun) outside of the scan room. Infusions of carboplatin diluted in artificial cerebrospinal fluid to a concentration of 0.09 mg/ml were commenced using the following infusion regime:
0.5 μl/min for 10 minutes, 1 μl/min for 5 minutes, 2.5 μl/min for 5 minutes, 5 μl/min for 5 minutes, 7.5 μl/min until completion.
Serial real-time T2-weighted MRI scans were performed in order to allow areas of hyperintense signal change to be used as a proxy measure for drug distribution. […] Once the Vi:Vd ratio was established the child was recovered from anaesthesia and monitored in a high dependency area until completion of the infusion. […] Infusions of carboplatin were performed on 3 consecutive days in order to maintain exposure to the cytotoxic chemotherapy for at least 72 hours.

[3] = Prolonged intracranial (brainstem) carboplatin infusions in primates (Strege et al.); format: in vivo
[4] = high-dose intravenous delivery; cited from earlier work
[5] = cited from earlier work
[6] = single brainstem infusions, concentrations as high as 1 mg/ml; cited from earlier work
[7] = one month after completion of infusions

## N.N.O=C([O-])C1(C(=O)[O-])CCC1.[Pt+2] [carboplatin]
[1]; 0.36 mg/ml
  reduction in synaptophysin (indicative of toxicity): not at 0.36 mg/ml
[1]; 0.72 mg/ml
  reduction in synaptophysin (indicative of toxicity): observed at 0.72 mg/ml
[2]; after 5 infusions, 0.09 and 0.18 mg/ml
  volume of T2 signal change on completion of final infusion: 35.1 mL
[2]; after infusion of 0.52 ml, 0.09 mg/ml in artificial CSF
  volume of distribution (T2-weighted MRI): 2.06 mL
[2]; [7]
  follow-up T2-weighted MR imaging: suggestive of the early stages of tumour necrosis
  follow-up post-contrast T1-weighted imaging: tumour progression in the inferior and anterior regions of the tumour
[2]; patient, 0.09-0.18 mg/ml, up to 10 μl/min
  tolerability of infusions: well tolerated; also recorded: transient worsening in neurological status
[3]; extrapolated from Strege et al, assuming patient weight of 70 kg
  lowest concentration likely to lead to significant toxicity: 0.22 mg/mL
[3]; in vivo, iv
  ratio of serum concentration, intravenous in humans vs intracranial in primates: more than 5 thousand
[4]
  peak glioma tissue concentration: 0.013 mg/mL
[5]; intracranial infusions of 0.25 mg/kg in primates
  serum concentration: 6 ng/mL
[5]; one-month long brainstem infusions, 0.075 mg/kg
  clinical toxicity: minimal clinical evidence of toxicity
[6]
  histological tissue damage: without histological evidence of tissue damage
